Measurements from ChEMBL document CHEMBL4699558, “Lead optimization of 8-(methylamino)-2-oxo-1,2-dihydroquinolines as bacterial type II topoisomerase inhibitors” (Bioorg Med Chem, 2020).
Converted amounts (≈) assume the structure as drawn.

Key:
[1] = system: Staphylococcus aureus; experiment: Antibacterial activity against Staphylococcus aureus ATCC 29213 assessed as reduction in bacterial cell growth incubated for 18 hrs by CSLI based broth microdilution method; assay type: functional
[2] = system: Escherichia coli; experiment: Antibacterial activity against Escherichia coli ATCC 25922 assessed as reduction in bacterial cell growth incubated for 18 hrs by CSLI based broth microdilution method; assay type: functional
[3] = target: DNA gyrase (Escherichia coli, UniProt P0AES4+P0AES6); experiment: Inhibition of Escherichia coli DNA gyrase by measuring supercoiling activity incubated for 60 mins by fluorescence based assay; assay type: protein-complex assay
[4] = Inhibition of Escherichia coli topoisomerase IV by measuring relaxation activity incubated for 30 mins by fluorescence based assay
[5] = system: Escherichia coli; experiment: Antibacterial activity against Escherichia coli ATCC 25922 in presence of PAbetaN by CLSI method; assay type: functional
[6] = system: Escherichia coli; experiment: Antibacterial activity against Escherichia coli ATCC 25922 by CLSI method; assay type: functional
[7] = system: Staphylococcus aureus; experiment: Antibacterial activity against Staphylococcus aureus ATCC 29213 by CLSI method; assay type: functional
[8] = system: Enterococcus faecium; experiment: Antibacterial activity against vancomycin-resistant Enterococcus faecium ATCC 51559 by CLSI method; assay type: functional
[9] = system: Enterococcus faecalis; experiment: Antibacterial activity against vancomycin-resistant Enterococcus faecalis ATCC 51575 by CLSI method; assay type: functional
[10] = system: Staphylococcus aureus; experiment: Antibacterial activity against community-acquired Methicillin -resistant Staphylococcus aureus ATCC BAA-1556 by CLSI method; assay type: functional
[11] = system: Streptococcus pneumoniae; experiment: Antibacterial activity against Streptococcus pneumoniae ATCC 49619 by CLSI method; assay type: functional
[12] = system: Enterococcus; experiment: Antibacterial activity against Vancomycin-resistant Enterococcus by CLSI method; assay type: functional
[13] = system: Staphylococcus aureus; experiment: Antibacterial activity against Methicillin-resistant Staphylococcus aureus by CLSI method; assay type: functional
[14] = system: Enterococcus faecium; experiment: Antibacterial activity against Enterococcus faecium ATCC 35667 by CLSI method; assay type: functional
[15] = system: Enterococcus faecalis; experiment: Antibacterial activity against Enterococcus faecalis ATCC 29212 by CLSI method; assay type: functional
[16] = system: Staphylococcus aureus; experiment: Antibacterial activity against hospital-acquired Methicillin -resistant Staphylococcus aureus ATCC BAA-811 by CLSI method; assay type: functional
[17] = system: Streptococcus anginosus; experiment: Antibacterial activity against Streptococcus anginosus ATCC 33397 by CLSI method; assay type: functional
[18] = system: Streptococcus pneumoniae; experiment: Antibacterial activity against genotype penicillin-resistant Streptococcus pneumoniae by CLSI method; assay type: functional
[19] = system: Haemophilus influenzae; experiment: Antibacterial activity against Haemophilus influenzae ATCC 43095 by CLSI method; assay type: functional
[20] = system: Peptostreptococcus anaerobius; experiment: Antibacterial activity against Peptostreptococcus anaerobius ATCC 27337 by CLSI method; assay type: functional
[21] = system: Clostridioides difficile; experiment: Antibacterial activity against Clostridioides difficile ATCC 700057 by CLSI method; assay type: functional
[22] = target: DNA topoisomerase 2-alpha (Homo sapiens, UniProt P11388); experiment: Inhibition of human topoisomerase 2alpha; assay type: ADME
DNA topoisomerase 2-alpha, sequence (P11388 whole entry): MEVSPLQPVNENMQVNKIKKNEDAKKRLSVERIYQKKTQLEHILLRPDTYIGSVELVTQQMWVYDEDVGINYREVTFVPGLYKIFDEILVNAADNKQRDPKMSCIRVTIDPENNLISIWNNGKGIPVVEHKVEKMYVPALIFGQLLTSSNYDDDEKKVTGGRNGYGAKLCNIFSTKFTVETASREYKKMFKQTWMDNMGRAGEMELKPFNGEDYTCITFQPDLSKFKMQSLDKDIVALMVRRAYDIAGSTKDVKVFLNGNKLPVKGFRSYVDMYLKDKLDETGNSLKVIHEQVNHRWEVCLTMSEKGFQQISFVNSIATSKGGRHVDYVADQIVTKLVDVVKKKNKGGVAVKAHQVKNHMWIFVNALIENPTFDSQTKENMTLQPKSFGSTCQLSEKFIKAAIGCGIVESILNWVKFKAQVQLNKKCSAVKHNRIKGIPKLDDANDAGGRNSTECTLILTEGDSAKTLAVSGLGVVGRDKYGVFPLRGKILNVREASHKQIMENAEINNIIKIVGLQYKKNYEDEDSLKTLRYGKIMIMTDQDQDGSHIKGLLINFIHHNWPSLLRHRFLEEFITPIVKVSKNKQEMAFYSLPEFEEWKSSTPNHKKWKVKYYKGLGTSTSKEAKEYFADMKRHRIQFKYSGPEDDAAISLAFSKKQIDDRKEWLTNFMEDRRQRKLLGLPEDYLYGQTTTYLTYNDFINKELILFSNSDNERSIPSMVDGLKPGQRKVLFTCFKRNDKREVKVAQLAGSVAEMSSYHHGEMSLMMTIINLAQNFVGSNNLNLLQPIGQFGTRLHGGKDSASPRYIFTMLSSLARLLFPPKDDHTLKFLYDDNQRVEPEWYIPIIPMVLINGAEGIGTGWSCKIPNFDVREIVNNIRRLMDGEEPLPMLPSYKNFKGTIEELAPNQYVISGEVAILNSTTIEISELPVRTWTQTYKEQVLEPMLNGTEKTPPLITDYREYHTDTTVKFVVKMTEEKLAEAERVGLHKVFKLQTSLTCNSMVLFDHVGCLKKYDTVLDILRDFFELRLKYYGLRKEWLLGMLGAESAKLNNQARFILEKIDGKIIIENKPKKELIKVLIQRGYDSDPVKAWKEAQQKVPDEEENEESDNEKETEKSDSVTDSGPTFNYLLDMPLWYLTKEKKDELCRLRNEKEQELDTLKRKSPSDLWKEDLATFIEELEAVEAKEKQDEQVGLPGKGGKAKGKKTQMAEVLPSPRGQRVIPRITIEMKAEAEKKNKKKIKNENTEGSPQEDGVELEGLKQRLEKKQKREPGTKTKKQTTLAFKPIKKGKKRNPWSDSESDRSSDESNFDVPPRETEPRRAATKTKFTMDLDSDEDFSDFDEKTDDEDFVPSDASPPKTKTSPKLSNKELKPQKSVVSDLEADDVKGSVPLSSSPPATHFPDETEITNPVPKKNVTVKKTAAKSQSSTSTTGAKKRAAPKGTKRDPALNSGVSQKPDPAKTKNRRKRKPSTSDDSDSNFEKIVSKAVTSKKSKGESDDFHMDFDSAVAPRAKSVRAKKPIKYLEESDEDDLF

[23] = system: Porphyromonas gingivalis; experiment: Antibacterial activity against Porphyromonas gingivalis JCM8525 by CLSI method; assay type: functional
[24] = Cytotoxicity against human HepG2 cells assessed as reduction in cell viability at 10 uM incubated for 48 hrs by CCK-8 assay
[25] = target: Voltage-gated inwardly rectifying potassium channel KCNH2 (Homo sapiens, UniProt Q12809); experiment: Inhibition of human ERG expressed in CHO cells by Q-patch clamp assay
Voltage-gated inwardly rectifying potassium channel KCNH2, sequence (Q12809 whole entry): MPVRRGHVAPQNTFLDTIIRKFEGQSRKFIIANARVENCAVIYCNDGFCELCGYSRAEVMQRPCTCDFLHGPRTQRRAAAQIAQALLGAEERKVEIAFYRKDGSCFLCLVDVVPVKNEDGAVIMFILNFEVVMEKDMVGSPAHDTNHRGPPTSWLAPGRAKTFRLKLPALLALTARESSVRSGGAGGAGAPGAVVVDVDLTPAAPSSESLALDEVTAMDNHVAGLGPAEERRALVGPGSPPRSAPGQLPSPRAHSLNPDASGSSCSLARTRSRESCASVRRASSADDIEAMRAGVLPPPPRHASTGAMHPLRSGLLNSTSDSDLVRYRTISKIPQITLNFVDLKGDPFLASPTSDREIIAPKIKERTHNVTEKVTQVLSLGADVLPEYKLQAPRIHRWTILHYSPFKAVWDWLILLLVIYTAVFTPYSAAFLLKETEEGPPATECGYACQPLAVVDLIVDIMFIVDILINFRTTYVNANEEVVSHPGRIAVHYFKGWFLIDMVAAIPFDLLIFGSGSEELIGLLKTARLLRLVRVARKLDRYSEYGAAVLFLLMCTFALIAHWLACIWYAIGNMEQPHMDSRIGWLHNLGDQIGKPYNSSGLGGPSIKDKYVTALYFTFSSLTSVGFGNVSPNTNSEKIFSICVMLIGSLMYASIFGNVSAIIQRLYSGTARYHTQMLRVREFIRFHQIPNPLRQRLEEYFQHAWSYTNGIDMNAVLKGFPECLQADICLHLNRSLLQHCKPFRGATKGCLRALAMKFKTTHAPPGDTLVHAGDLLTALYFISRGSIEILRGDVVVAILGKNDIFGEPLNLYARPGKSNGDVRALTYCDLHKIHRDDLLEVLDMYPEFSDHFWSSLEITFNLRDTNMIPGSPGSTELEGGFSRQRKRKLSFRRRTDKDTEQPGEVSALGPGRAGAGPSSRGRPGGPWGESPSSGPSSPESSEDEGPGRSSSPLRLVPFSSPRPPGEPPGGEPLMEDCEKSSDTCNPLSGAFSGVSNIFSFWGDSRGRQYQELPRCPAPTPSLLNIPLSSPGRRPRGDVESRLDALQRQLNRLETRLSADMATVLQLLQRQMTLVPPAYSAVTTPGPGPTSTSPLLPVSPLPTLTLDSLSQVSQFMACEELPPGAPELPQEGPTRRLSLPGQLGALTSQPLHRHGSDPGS

[26] = system: Prevotella melaninogenica; experiment: Antibacterial activity against Prevotella melaninogenica JCM6325 by CLSI method; assay type: functional
[27] = Cytotoxicity against human HepG2 cells assessed as reduction in cell viability at 50 uM incubated for 48 hrs by CCK-8 assay
[28] = system: Bacteroides fragilis; experiment: Antibacterial activity against Bacteroides fragilis ATCC 25285 by CLSI method; assay type: functional
[29] = system: Fusobacterium nucleatum; experiment: Antibacterial activity against Fusobacterium nucleatum JCM8532 by CLSI method; assay type: functional

| Structure (SMILES) | IC50 [3] | IC50 [4] | MIC [5] | MIC [6] | MIC [7] | MIC [8] | MIC [9] | MIC [11] | MIC [15] | MIC [17] | also measured |
| --- | --- | --- | --- | --- | --- | --- | --- | --- | --- | --- | --- |
| CO[C@@H]1[C@@H](OC(N)=O)[C@@H](O)[C@H](Oc2ccc3c(O)c(NC(=O)c4ccc(O)c(CC=C(C)C)c4)c(=O)oc3c2C)OC1(C)C [NOVOBIOCIN] |  |  |  |  |  |  |  |  |  |  | MIC [1]: 0.13 µg/mL (≈ 0.212 µM); MIC [2]: 64 µg/mL (≈ 104 µM) |
| CNc1cc(F)cc2cc(C(=O)Nc3cnc(C(=O)O)nc3)c(=O)[nH]c12 | 0.95 nM | 32.5 nM | > 16 µg/mL | > 16 µg/mL | > 16 µg/mL |  |  |  |  |  |  |
| CNc1cc(F)cc2cc(C(=O)Nc3ccc(C(=O)O)cc3CN(CC(=O)O)C3CCCCC3)c(=O)[nH]c12 | 0.57 nM | 76.3 nM | 0.12 µg/mL | > 64 µg/mL | 32 µg/mL (≈ 61 µM) |  |  |  |  |  |  |
| CN(C)c1cc(NC(=O)CNC(C)(C)C)c(O)c2c1C[C@H]1C[C@H]3[C@H](N(C)C)C(O)=C(C(N)=O)C(=O)[C@@]3(O)C(O)=C1C2=O [TIGECYCLINE] |  |  |  | 0.25 µg/mL (≈ 0.427 µM) | 0.25 µg/mL (≈ 0.427 µM) | 0.12 µg/mL (≈ 0.205 µM) | 0.25 µg/mL (≈ 0.427 µM) | 0.06 µg/mL (≈ 0.102 µM) | 0.12 µg/mL (≈ 0.205 µM) | 0.06 µg/mL (≈ 0.102 µM) | MIC [10]: 0.5 µg/mL (≈ 0.854 µM); MIC50 [12]: 0.25 µg/mL (≈ 0.427 µM); MIC90 [12]: 0.5 µg/mL (≈ 0.854 µM); MIC [13]: 0.25 µg/mL (≈ 0.427 µM); MIC50 [13]: 0.25 µg/mL (≈ 0.427 µM); MIC90 [13]: 2 µg/mL (≈ 3.41 µM); MIC [14]: 0.06 µg/mL (≈ 0.102 µM); MIC [16]: 0.25 µg/mL (≈ 0.427 µM) |
| CC[C@H]1OC(=O)[C@H](C)[C@@H](O[C@H]2C[C@@](C)(OC)[C@@H](O)[C@H](C)O2)[C@H](C)[C@@H](O[C@@H]2O[C@H](C)C[C@H](N(C)C)[C@H]2O)[C@](C)(O)C[C@@H](C)CN(C)[C@H](C)[C@@H](O)[C@]1(C)O [AZITHROMYCIN] |  |  |  |  |  |  |  |  |  |  | MIC50 [18]: > 128 µg/mL; MIC90 [18]: > 128 µg/mL |
| CNc1cc(F)cc2cc(C(=O)Nc3ccc(C(=O)NS(=O)(=O)N(C)C)cc3)c(=O)[nH]c12 | 0.43 nM | 51.9 nM | ≤ 0.015 µg/mL | 16 µg/mL (≈ 34.7 µM) |  |  |  | 0.06 µg/mL (≈ 0.13 µM) | 0.03 µg/mL (≈ 0.065 µM) | 0.12 µg/mL (≈ 0.26 µM) | MIC [19]: 0.06 µg/mL (≈ 0.13 µM); MIC [14]: 0.06 µg/mL (≈ 0.13 µM) |
| CN[C@H](CC(C)C)C(=O)N[C@H]1C(=O)N[C@@H](CC(N)=O)C(=O)N[C@H]2C(=O)N[C@H]3C(=O)N[C@H](C(=O)N[C@H](C(=O)O)c4cc(O)cc(O)c4-c4cc3ccc4O)[C@H](O)c3ccc(c(Cl)c3)Oc3cc2cc(c3O[C@@H]2O[C@H](CO)[C@@H](O)[C@H](O)[C@H]2O[C@H]2C[C@](C)(N)[C@H](O)[C@H](C)O2)Oc2ccc(cc2Cl)[C@H]1O [VANCOMYCIN] |  |  |  | > 128 µg/mL |  | > 128 µg/mL | > 128 µg/mL | 0.25 µg/mL (≈ 0.173 µM) | 2 µg/mL (≈ 1.38 µM) | 0.5 µg/mL (≈ 0.345 µM) | MIC50 [12]: > 128 µg/mL; MIC90 [12]: > 128 µg/mL; MIC50 [13]: 1 µg/mL (≈ 0.69 µM); MIC90 [13]: 2 µg/mL (≈ 1.38 µM); MIC50 [18]: 0.25 µg/mL (≈ 0.173 µM); MIC90 [18]: 0.5 µg/mL (≈ 0.345 µM) |
| C[C@@H](O)[C@H]1C(=O)N2C(C(=O)O)=C(S[C@@H]3CN[C@H](C(=O)N(C)C)C3)[C@H](C)[C@H]12 [MEROPENEM] |  |  |  |  |  |  |  |  |  |  | MIC50 [18]: 0.5 µg/mL (≈ 1.3 µM); MIC90 [18]: 1 µg/mL (≈ 2.61 µM) |
| CCCCCCCCCC(=O)N[C@@H](Cc1c[nH]c2ccccc12)C(=O)N[C@H](CC(N)=O)C(=O)N[C@@H](CC(=O)O)C(=O)N[C@@H]1C(=O)NCC(=O)N[C@@H](CCCN)C(=O)N[C@@H](CC(=O)O)C(=O)N[C@H](C)C(=O)N[C@@H](CC(=O)O)C(=O)NCC(=O)N[C@H](CO)C(=O)N[C@@H]([C@H](C)CC(=O)O)C(=O)N[C@@H](CC(=O)c2ccccc2N)C(=O)O[C@@H]1C |  |  |  |  |  |  |  |  |  |  | MIC50 [12]: 2 µg/mL (≈ 1.23 µM); MIC90 [12]: 4 µg/mL (≈ 2.47 µM); MIC50 [13]: 1 µg/mL (≈ 0.617 µM); MIC90 [13]: 1 µg/mL (≈ 0.617 µM) |
| CNc1cc(F)cc2cc(C(=O)Nc3ccc(C(=O)O)cc3CN(CCO)C3CCCCC3)c(=O)[nH]c12.Cl | 0.29 nM | 23.4 nM | ≤ 0.03 µg/mL | 4 µg/mL | 0.5 µg/mL | 0.015 µg/mL | 0.008 µg/mL | 0.015 µg/mL | 0.008 µg/mL | 0.008 µg/mL | MIC [20]: 0.12 µg/mL; MIC [21]: 1 µg/mL; IC50 [22]: > 100000 nM; MIC [23]: 0.12 µg/mL; MIC [10]: 1 µg/mL; cytotoxicity at 48 h, 10 µM ([24]; HepG2 cells): -2.04%; IC50 [25]: > 30000 nM; MIC [26]: > 32 µg/mL; cytotoxicity at 48 h, 50 µM ([27]; HepG2 cells): 7.76%; MIC [19]: 0.06 µg/mL; MIC [14]: 0.015 µg/mL; MIC [28]: > 32 µg/mL; MIC [16]: 1 µg/mL; MIC [29]: 0.12 µg/mL |
| CNc1cc(F)cc2cc(C(=O)Nc3ccc(C(=O)O)cc3CN(C)C3CC3)c(=O)[nH]c12 | 0.6 nM | 771 nM | ≤ 0.03 µg/mL | > 8 µg/mL | > 8 µg/mL |  |  |  |  |  |  |
| CNc1cc(F)cc2cc(C(=O)Nc3ccc(CO)cc3CN(CCO)C3CCCCC3)c(=O)[nH]c12 | 1.6 nM |  | ≤ 0.03 µg/mL |  | 1 µg/mL (≈ 2.01 µM) | 0.25 µg/mL (≈ 0.503 µM) | 0.015 µg/mL (≈ 0.0302 µM) | 0.06 µg/mL (≈ 0.121 µM) | 0.03 µg/mL (≈ 0.0604 µM) | 0.06 µg/mL (≈ 0.121 µM) | IC50 [22]: > 100000 nM; MIC [23]: 4 µg/mL (≈ 8.06 µM); MIC [10]: 2 µg/mL (≈ 4.03 µM); cytotoxicity at 48 h, 10 µM ([24]; hepg2): -15.3%; MIC [26]: > 32 µg/mL; cytotoxicity at 48 h, 50 µM ([27]; hepg2): 98.5%; MIC [28]: > 32 µg/mL; MIC [16]: 1 µg/mL (≈ 2.01 µM) |
